Data taken from patent publication US20240238299A1, “USE OF PYRROLOPYRIMIDINE COMPOUND” (GUANGZHOU JOYO PHARMATECH CO., LTD, priority 2021, published 2024).
pIC50: −log10 of the molar value. Read-outs that look alike come from different tables or passages of the source.

Legend:
BV-2 cells = test: CTG cell proliferation assay, LPS/IFN-γ-activated BV-2 cells; type: cell-based, Mouse
Method: (§1) Step 1: BV-2 cells in the exponential growth phase were collected, and viable cells were counted using a Vi-Cell XR cell counter. The cell suspension was adjusted to an appropriate concentration with the culture medium. 160 μL of cell suspension was added to each well of a 96-well cell culture plate, resulting in a final cell concentration of 12,000 cells per well. The culture plate was incubated for 24 hours in a 37° C., 5% CO2 incubator.
(§2) Step 2: A 10 mM DMSO compound stock solution was diluted at a ratio of 1:4 using DMSO to prepare a series of 1000× test compound solutions. These 1000× test compound solutions were further diluted at a ratio of 1:100 using cell culture medium to prepare a series of 10× test compound solutions. Finally, the 96-well plate that had been plated with cells the day before was taken out. According to the experimental well plate loading design, 20 μL of the corresponding 10× solution was added to each well, with three duplicate wells for each drug concentration. The final concentrations of the test compounds used in the experiment (i.e., 1× solutions) have a range of 10, 2.5, 0.625, 0.156, 0.0391, 0.0098, and 0.0024 μM. The final DMSO concentration in each well was 0.1%.
(§3) After the compound was added, the 96-well plate was incubated for half an hour in the 37° C., 5% CO2 incubator.
(§4) After the pre-incubation was completed, 20 μL of culture medium containing 100 ng/mL LPS and 100 ng/mL IFN-γ (final concentrations of 10 ng/mL LPS and 10 ng/mL IFN-7) was added to each well to induce the activation of BV-2 cells. The culture plate was then incubated for 24 hours in the 37° C., 5% CO2 incubator.
(§5) Step 3: After 24 hours of treatment with the compound, the culture plate was centrifuged at 1200 rpm for 5 minutes. The supernatant was pipetted into another plate, which was sealed with tinfoil and stored at −20° C. for future ELISA and Griess reagent system assays. The cell culture plate from which the supernatant had been removed was immediately used for cell proliferation assays using the CellTiter-Glo (CTG) method.
Step 4: In the cell culture plate from which the supernatant had been removed, 100 μL of PBS was added to each well. According to the instructions of the CellTiter-Glo (CTG) kit, 50 μL of pre-melted and room-temperature balanced CTG solution was added to each well. The plate was then mixed for 2 minutes using a microplate shaker. After letting it stand at room temperature for 10 minutes, the fluorescence signal value was measured using an Envision 2104 plate reader.
Step 1: Using the CTG fluorescence signal values, the percentage of surviving cells (surviving cells %) at each test concentration relative to the blank (DMSO) group was calculated. The formula was: surviving cells %=fluorescence value of the test concentration group/fluorescence value of the blank group.
Step 2: the percentage of surviving cells was plotted against the logarithm of the compound concentration. Nonlinear regression was used to fit the curve, and the formula “log(inhibitor) vs. response—Variable slope” in the software GraphPad Prism 5 was employed to calculate the IC50 value.
Step 3: The formula for calculating the inhibition rate was: inh. (%)={fluorescence value of the blank group−fluorescence value of the test concentration group}/fluorescence value of the blank (DMSO) group.

[1] = tested on: NO secretion by BV-2 cell line; test: NO secretion by LPS/IFN-γ-activated BV-2 cells (Griess Reagent System); type: cell-based, Mouse; settings: for pIC50: Mus musculus, BV-2, 24 h co-incubation
Method: as §1, §2, §3, §4, §5
(§6) Step 5 (NO and CCL5 detection): The CCL5 levels in the supernatant were detected using an ELISA kit (Mouse CCL5/RANTES DuoSet ELISA; R&D; DY478-05), following the instructions provided with the kit. The nitric oxide (NO) levels in the supernatant were detected using the Griess Reagent System (Promega; G2930), following the instructions provided with the kit.
(§7) Step 1: Firstly, the optical density values obtained from ELISA and Griess tests were used to plot a standard curve and calculate the absolute concentrations of each sample. The absolute concentration was then calibrated using the CTG fluorescence value corresponding to each sample to obtain the calibrated concentration. The formula for calculating the calibrated concentration was: calibrated concentration=absolute concentration/CTG fluorescence value of the same sample.
Step 2: Based on the calibrated concentration of each sample, the relative percentage of CCL5 or NO secretion (i.e., CCL5 production (%) or NO production (%)) at each test concentration relative to the blank (DMSO) group was calculated. The formula for calculating the relative percentage was: relative percentage %=(calibrated concentration of the test concentration group)/(calibrated concentration of the blank group).
Step 3: Finally, the relative percentage of CCL5 secretion or the relative percentage of NO secretion was plotted against the logarithm of the compound concentration. […]

[2] = tested on: mouse CCL5 secretion by BV-2 cell line; test: CCL5 secretion by LPS/IFN-γ-activated BV-2 cells (ELISA); type: cell-based
Method: as §1, §2, §3
as §4, with “incubator. […]” for “incubator.”
as §6, §7
Step 2: Based on the calibrated concentration of each sample, the relative percentage of CCL5 or NO secretion (i.e., CCL5 production (%) or NO production (%)) at each test concentration relative to the blank (DMSO) group was calculated. […]

[3] = 24 h co-incubation, up to 10 μM

pIC50 ([1]; read-out: IC50 on NO secretion by BV-2): < 5.00
pIC50 ([1]; read-out: IC50 on NO secretion by BV-2 (text of b102)): < 5.00
pIC50 ([2]; Mus musculus, BV-2, 24 h co-incubation): < 5.00
SMILES: CCc1cc(/C(C)=N/OCc2ccc(C3CCCCC3)c(C(F)(F)F)c2)ccc1CN1CC(C(=O)O)C1 [Siponimod, reference compound]
inhibitory effect on cell proliferation (BV-2 cells; 24 h co-incubation with BV-2, highest test concentration 10 μM): no significant inhibitory effect on cell proliferation
inhibition at up to 10 µM (BV-2 cells; Mus musculus, BV-2, 24 h co-incubation, LPS/IFN-γ, highest concentration 10 μM, read-out: Maximum inhibition rate on BV-2 cell proliferation): 4.44%
Maximum inhibition rate on NO secretion by BV-2 [1, 3]: 7.71%
Maximum inhibition rate on CCL5 secretion by BV-2 [2, 3]: 35.16%
